Where two headings read alike, the source gives them in different places.
Tests used:
FADD−/− Jurkat cells = experiment: TNF-induced programmed cell necrosis inhibition, Cell Titer-Glo viability; format: cell-based; details: Homo sapiens, Jurkat
In short: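 FADD-deficient Jurkat cells (2.5×10^5/mL) were pretreated 1 h at 37 °C with compound plus Smac (50 nM as added), then stimulated with TNFα (50 ng/mL as added) for 14 h at 37 °C, 5% CO2. Viability was measured as ATP by CellTiter-Glo luminescence, with unstimulated DMSO wells as 100%. EC50 values were derived.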

L929 cells = experiment: as above; format: cell-based, mouse; details: Mus musculus, read-out: EC50 inhibitory activity on programmed cell necrosis
In short: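 L929 mouse fibroblasts were pretreated 1 h at 37 °C with compound plus Smac (500 nM solution added), then stimulated with TNFα (500 ng/mL solution added) for 14 h. Viability was read as ATP by CellTiter-Glo luminescence, with unstimulated DMSO wells set to 100%, and EC50 values were calculated.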

Work on Cc1noc([C@@H]2CCCN2C(=O)C(C)(C)Oc2ccc(Cl)cc2)n1 [QY-1-98] yielded an EC50 (FADD−/− Jurkat cells; 14 h, TNFa + SM164, read-out: EC50 inhibitory activity on programmed cell necrosis) of 1530 nM, an EC50 (FADD−/− Jurkat cells; TNFa, read-out: EC50 inhibitory activity on programmed cell necrosis) of 128 nM and an EC50 (L929 cells; L929, 14 h, L929 cells (mouse), TNFa + SM164) of 1290 nM. For the same molecule, the EC50 (L929 cells; L929, L929 cells (mouse), TNFa) was 213 nM.

— patent US12662473B2, “Inhibitors for programmed cell necrosis and preparation method therefor and use thereof” (SHANGHAI INSTITUTE OF ORGANIC CHEMISTRY, CHINESE ACADEMY OF …, priority 2019, dated 2026)
